Literature values as cited in patent US20260048008A1, “ORGANOGELS FOR SUSTAINED DRUG DELIVERY, METHODS OF PREPARATION AND USE THEREOF” (OCULAR THERAPEUTIX, INC., priority 2022, published 2026).

solubility in water: practically insoluble in water
SMILES: CC(C)OC(=O)CCC/C=C\C[C@@H]1[C@@H](/C=C/[C@@H](O)COc2cccc(C(F)(F)F)c2)[C@H](O)C[C@@H]1O [Travoprost]
